Each structure is given as a SMILES string. pIC50: −log10 of the molar value. Converted amounts (≈) assume the structure as drawn. Bounds are passed on as bounds.

As usually defined, the pIC50 is −log10 of the IC50, conventionally taken in molar units. Read a low pIC50 as a high IC50. One may read the logD as lipophilicity at a set pH, counting ionised and neutral species. Low readings indicate lower lipophilicity, high ones higher lipophilicity.

For data set [1], the target named is T1, Carnitine O-palmitoyltransferase 1, muscle isoform (Homo sapiens, UniProt Q92523).
T1 sequence (Q92523 whole entry): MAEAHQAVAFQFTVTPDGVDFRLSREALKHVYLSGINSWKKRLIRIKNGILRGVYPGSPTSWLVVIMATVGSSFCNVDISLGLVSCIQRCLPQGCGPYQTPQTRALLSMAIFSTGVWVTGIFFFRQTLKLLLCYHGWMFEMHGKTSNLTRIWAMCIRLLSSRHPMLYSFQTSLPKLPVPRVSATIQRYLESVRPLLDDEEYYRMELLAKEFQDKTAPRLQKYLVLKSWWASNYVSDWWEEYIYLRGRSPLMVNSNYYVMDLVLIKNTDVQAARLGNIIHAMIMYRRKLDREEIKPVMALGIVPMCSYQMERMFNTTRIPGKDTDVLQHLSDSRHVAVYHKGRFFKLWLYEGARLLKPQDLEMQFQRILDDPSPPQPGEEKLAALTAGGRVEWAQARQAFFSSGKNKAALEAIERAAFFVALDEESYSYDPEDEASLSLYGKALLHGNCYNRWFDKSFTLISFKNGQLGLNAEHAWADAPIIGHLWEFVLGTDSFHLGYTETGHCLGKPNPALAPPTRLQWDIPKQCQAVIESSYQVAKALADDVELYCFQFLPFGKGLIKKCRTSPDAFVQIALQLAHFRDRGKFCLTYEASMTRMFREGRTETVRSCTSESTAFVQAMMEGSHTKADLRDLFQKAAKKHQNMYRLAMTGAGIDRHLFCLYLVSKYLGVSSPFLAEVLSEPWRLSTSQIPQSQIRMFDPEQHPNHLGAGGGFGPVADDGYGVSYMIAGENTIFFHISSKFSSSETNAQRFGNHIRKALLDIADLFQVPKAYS
Briefly: SUPPLEMENTARY: Inhibition of Carnitine palmitoyltransferase 1, muscle isoform. The arrangement: species or system Muscle tissue.

For data set [2], the target named is T2, Carnitine O-palmitoyltransferase 2, mitochondrial (Homo sapiens, UniProt P23786).
T2 sequence (P23786 whole entry): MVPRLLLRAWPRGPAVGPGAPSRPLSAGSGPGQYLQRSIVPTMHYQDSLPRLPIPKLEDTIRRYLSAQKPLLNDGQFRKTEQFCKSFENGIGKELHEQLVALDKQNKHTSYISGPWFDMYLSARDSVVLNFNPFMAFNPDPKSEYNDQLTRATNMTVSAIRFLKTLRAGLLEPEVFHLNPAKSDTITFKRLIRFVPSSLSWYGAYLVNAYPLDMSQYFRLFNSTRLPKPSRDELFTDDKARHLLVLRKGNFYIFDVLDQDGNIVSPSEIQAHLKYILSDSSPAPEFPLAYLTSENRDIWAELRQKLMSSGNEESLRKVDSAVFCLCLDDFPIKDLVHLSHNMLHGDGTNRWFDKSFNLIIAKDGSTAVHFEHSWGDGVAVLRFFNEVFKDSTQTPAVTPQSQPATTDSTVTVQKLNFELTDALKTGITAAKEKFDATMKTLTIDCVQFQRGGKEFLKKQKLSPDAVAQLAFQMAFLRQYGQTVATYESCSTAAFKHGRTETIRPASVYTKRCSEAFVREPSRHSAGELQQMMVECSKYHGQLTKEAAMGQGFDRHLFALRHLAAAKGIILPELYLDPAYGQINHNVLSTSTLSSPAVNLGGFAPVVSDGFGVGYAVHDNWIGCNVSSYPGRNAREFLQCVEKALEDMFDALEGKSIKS
Put plainly: (§1) SUPPLEMENTARY: Inhibition of Carnitine palmitoyltransferase 2.

Data set [3] has as its target T3, Carnitine O-palmitoyltransferase 2, mitochondrial (Rattus norvegicus, UniProt P18886).
T3 sequence (P18886 whole entry): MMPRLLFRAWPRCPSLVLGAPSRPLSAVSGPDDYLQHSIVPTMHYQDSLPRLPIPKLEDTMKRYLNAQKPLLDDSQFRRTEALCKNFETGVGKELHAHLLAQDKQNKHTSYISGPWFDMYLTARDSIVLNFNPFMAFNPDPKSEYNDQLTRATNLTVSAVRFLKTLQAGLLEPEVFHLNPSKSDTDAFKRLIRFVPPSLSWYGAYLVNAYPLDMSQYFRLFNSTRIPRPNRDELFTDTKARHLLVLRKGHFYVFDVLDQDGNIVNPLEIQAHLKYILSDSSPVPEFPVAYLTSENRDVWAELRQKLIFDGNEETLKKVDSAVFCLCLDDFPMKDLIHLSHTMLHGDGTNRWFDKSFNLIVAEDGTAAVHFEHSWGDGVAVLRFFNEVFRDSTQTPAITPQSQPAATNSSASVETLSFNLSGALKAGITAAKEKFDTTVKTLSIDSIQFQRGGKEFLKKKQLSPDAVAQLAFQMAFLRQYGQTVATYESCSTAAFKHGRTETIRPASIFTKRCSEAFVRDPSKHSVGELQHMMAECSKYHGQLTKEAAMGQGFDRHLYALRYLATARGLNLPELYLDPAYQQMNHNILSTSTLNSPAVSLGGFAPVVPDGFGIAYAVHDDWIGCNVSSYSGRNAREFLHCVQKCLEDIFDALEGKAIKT
The data set is described as §1.

Data set [4] has as its target T4, Carnitine O-palmitoyltransferase 1, liver isoform (Homo sapiens, UniProt P50416).
T4 sequence (P50416 whole entry): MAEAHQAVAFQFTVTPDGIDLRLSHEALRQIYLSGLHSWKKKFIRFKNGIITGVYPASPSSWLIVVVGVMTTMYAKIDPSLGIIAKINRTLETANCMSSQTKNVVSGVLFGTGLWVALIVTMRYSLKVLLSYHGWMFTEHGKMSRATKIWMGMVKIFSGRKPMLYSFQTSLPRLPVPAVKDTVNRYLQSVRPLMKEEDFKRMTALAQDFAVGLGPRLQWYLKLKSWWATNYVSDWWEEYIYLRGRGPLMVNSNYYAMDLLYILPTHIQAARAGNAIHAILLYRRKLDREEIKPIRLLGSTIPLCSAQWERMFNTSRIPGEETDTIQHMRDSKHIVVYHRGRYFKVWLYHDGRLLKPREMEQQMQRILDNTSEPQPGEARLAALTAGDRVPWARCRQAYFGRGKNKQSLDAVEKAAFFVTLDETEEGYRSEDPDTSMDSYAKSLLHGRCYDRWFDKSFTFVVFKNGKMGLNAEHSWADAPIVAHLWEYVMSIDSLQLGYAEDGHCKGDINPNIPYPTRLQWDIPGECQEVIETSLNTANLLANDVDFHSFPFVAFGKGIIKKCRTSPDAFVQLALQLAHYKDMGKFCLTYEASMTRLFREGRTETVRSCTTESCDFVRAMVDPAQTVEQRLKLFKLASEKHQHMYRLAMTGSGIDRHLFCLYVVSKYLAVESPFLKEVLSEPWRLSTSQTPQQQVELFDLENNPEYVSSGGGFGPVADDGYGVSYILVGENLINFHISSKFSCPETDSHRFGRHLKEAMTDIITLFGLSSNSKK
Briefly: (§2) SUPPLEMENTARY: Inhibition of Carnitine palmitoyltransferase 1, liver isoform.

In data set [5] the target is T5, Carnitine O-palmitoyltransferase 1, liver isoform (Rattus norvegicus, UniProt P32198).
T5 sequence (P32198 whole entry): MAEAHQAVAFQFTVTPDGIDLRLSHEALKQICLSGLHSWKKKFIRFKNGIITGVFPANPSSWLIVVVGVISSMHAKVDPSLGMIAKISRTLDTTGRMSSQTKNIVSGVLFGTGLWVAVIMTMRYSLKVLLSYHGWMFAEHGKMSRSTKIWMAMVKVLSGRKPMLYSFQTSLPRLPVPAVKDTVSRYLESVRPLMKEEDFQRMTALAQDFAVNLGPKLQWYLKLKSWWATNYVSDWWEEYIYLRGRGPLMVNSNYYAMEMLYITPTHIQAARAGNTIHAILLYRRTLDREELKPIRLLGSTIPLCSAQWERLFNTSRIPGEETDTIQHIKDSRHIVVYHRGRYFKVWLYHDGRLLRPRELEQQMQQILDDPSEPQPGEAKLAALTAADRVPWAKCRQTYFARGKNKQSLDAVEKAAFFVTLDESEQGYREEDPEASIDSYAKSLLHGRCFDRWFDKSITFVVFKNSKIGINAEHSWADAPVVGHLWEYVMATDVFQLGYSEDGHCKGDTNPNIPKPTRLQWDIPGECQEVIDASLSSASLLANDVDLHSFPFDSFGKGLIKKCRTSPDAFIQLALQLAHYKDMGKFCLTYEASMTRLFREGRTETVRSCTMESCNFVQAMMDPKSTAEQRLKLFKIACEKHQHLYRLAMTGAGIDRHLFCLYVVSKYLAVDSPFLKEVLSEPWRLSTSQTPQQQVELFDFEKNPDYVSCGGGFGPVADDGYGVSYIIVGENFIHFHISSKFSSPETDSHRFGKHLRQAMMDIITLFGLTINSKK
The data set is described as §2.

The nature of data set [6]: SUPPLEMENTARY: Lyophilisation Solubility Assay (LYSA). The class given is physicochemical. Particulars: read-out: Kinetic_solubility.
The nature of data set [7]: SUPPLEMENTARY: Lipophilicity (log D) Determination by high-throughput shake-flask. In kind it is physicochemical. To be noted: octanol/water.
The nature of data set [8]: SUPPLEMENTARY: PAMPA permeability assay. In kind it is physicochemical. To be noted: read-out: Permeability. On the technique in general: In PAMPA a lipid-coated filter parts donor from acceptor wells.

In the case of `O=C([C@H]1CCCCN1C(=O)COc1ccccc1)N1CCc2ccccc2C1`, the negative-log IC50 (pIC50) was < 4.00 in data set [1]; 5.69 in data set [2]; 5.43 in data set [3]; 6.60 in data set [4]; 6.22 in data set [5]. Besides, in data set [6], the solubility kinetic turned out to be 22 µg/mL (≈ 58.1 µM). In data set [7], this compound displayed a logD of 2.97. Moreover, the Papp in data set [8] was found to be 4.18 ×10⁻⁶ cm/s.
Turning to `CCN1C(=O)CC(C)(C)c2ccc(-c3nc([C@H]4CCCCN4C(=O)COc4ccccc4)no3)cc21`, the pIC50 was < 4.00 in data set [1]; < 4.00 in data set [2]; < 4.00 in data set [3]; 6.77 in data set [4]; 6.76 in data set [5]. Also, the solubility kinetic in data set [6] was < 1 µg/mL. Besides, in data set [7], the logD is > 3. Further, the Papp in data set [8] was 0.4 ×10⁻⁶ cm/s.
Regarding `COc1ccc(Cl)cc1S(=O)(=O)N1CCOc2c(Cl)cc(C(=O)Nc3ncc(CC(=O)O)s3)cc21`, the pIC50 in data set [1] was 6.16; in data set [2] it was < 4.00; in data set [3] it was < 4.00; in data set [4], 7.16; in data set [5], 7.43. The solubility kinetic in data set [6] was found to be 5 µg/mL (≈ 8.95 µM). The compound also came in with a logD in data set [7] of 2.27. For the same compound, in data set [8], the Papp came out at 3.12 ×10⁻⁶ cm/s.
As to `O=C(COc1ccccc1)N1CCCC[C@@H]1c1noc(-c2cccc3[nH]cnc23)n1`, the pIC50 in data set [1] was < 4.00; in data set [2], 4.07; in data set [3], < 4.00; in data set [4], 7.06; in data set [5], 6.72. Further, the solubility kinetic in data set [6] came out at 30 µg/mL (≈ 74.4 µM). In data set [7], this compound came in with a logD of 2.84. Moreover, the Papp in data set [8] was 1.67 ×10⁻⁶ cm/s.
For the compound `COc1ccc(Cl)cc1CN1C(=O)C2(CC2)c2ccc(C(=O)Nc3nc(CC(=O)O)cs3)cc21`, the pIC50 is 5.56 in data set [1]; < 4.00 in data set [2]; < 4.00 in data set [3]; 7.04 in data set [4]; 7.46 in data set [5]. The solubility kinetic in data set [6] is 48 µg/mL (≈ 96.4 µM). This compound showed a logD in data set [7] of 2.7. For the same compound, in data set [8], the Papp is 1.03 ×10⁻⁶ cm/s.
Take `O=C(COc1ccccc1)N1CCCC[C@@H]1c1noc(-c2ccc(Cl)nc2)n1`: the pIC50 in data set [1] is < 4.00; in data set [2], 4.42; in data set [3] it was < 4.00; in data set [4], 6.81; in data set [5], 6.60. Also, the solubility kinetic in data set [6] is 32 µg/mL (≈ 80.2 µM). The compound further came in with a logD in data set [7] of 2.98. Besides, in data set [8], the Papp came to 5.17 ×10⁻⁶ cm/s.
Turning to `CCOc1ccc2c(c1)CN(C(=O)[C@H]1CCCCN1C(=O)COc1ccccc1)C2`, the pIC50 in data set [1] is < 4.00; in data set [2], 6.33; in data set [3], 6.27; in data set [4] it was 6.79; in data set [5], 6.63. Also, in data set [6], the solubility kinetic amounted to 30 µg/mL (≈ 73.4 µM). In addition, the logD in data set [7] was 3.23. Further, in data set [8], the Papp is 5.52 ×10⁻⁶ cm/s.
Turning to `COc1ccc(Cl)cc1S(=O)(=O)c1nn(C)c2ccc(C(=O)Nc3ccc(CC(=O)O)cc3)cc12`, the pIC50 in data set [1] is 5.76; in data set [2] it was < 4.00; in data set [3], < 4.00; in data set [4] it was 6.78; in data set [5], 6.90. Moreover, in data set [6], the solubility kinetic was 70 µg/mL (≈ 136 µM). In data set [7], this compound registered a logD of 0.12. Besides, the Papp in data set [8] was 0.39 ×10⁻⁶ cm/s.
For the compound `CN(C)C(=O)CCC(=O)Nc1cc(F)cc(-c2noc([C@H]3CCCCN3C(=O)COc3ccccc3)n2)c1`, the pIC50 is < 4.00 in data set [1]; 4.85 in data set [2]; < 4.00 in data set [3]; 6.96 in data set [4]; 6.60 in data set [5]. Besides, the solubility kinetic in data set [6] was < 1 µg/mL. The logD in data set [7] was determined as 3.16. Moreover, the Papp in data set [8] turned out to be 0.83 ×10⁻⁶ cm/s.
`COc1cccc2c1CCN(C(=O)[C@H]1CCCCN1C(=O)COc1ccccc1)C2`: the pIC50 in data set [1] was < 4.00; in data set [2], 6.01; in data set [3], 5.66; in data set [4], 6.66; in data set [5], 6.33. The solubility kinetic in data set [6] stood at 23 µg/mL (≈ 56.3 µM). Also, the logD in data set [7] was determined as 3.13. The Papp in data set [8] worked out at 5.46 ×10⁻⁶ cm/s.

The values above are taken from ChEMBL document CHEMBL3431459, “Roche carnitine palmitoyltransferase modulator screening data (supplementary data associated with the publication CHEMBL2216752)”.
